Patent US11801252B2, “Pharmaceutical composition” (Jiangsu Hengrui Medicine Co., Ltd., priority 2021, dated 2023)
“And” between values parts separate entries of the source, which are not always exact repeats. Equal entries are not always repeated. Where two headings read alike, the source gives them in different places.

Key:
[1] = Pharmacokinetics study in male cynomolgus monkeys (Test Example 1); type: in vivo; conditions: cynomolgus monkey, plasma, po, 300 mg/animal, after Formulation 2 (2 tablets, 300 mg/animal) PO, mean ± SD; for AUC(0-inf): n = 8, read-out: AUC(0-∞) of SNAC in plasma; for Cmax: n = 8, read-out: Cmax of SNAC in plasma; for half-life: n = 8, read-out: T1/2 of SNAC in plasma (converted); for Tmax: n = 8, read-out: Tmax of SNAC in plasma; for AUC(0-t): t = 24 h, n = 8, read-out: AUC(0-t) of SNAC in plasma
Protocol: Eight male cynomolgus monkeys were administered by single oral gavage, including 4 cycles, 5 days per cycle, 20 days in total (see Table 4 for the protocol).
The animals in cycle I and II were fasted before administration, while the animals in cycle III and IV were given high-fat food before administration. Animals in cycle I and III were given 300 mg of Formulation 2 (2 tablets of abiraterone acetate, T, comprising 300 mg of abiraterone), while animals in cycle II and IV were given 1000 mg of reference preparation (4 tablets of abiraterone acetate Zytiga®, R). Blood samples were collected before administration or at 0.25, 0.5, 1, 1.5, 2, 2.5, 3, 4, 8, 12 and 24 hours after administration. The validated LC-MS/MS method was used to determine the concentrations of abiraterone and SNAC in plasma samples. Only abiraterone was detected for those given reference preparation, while abiraterone and SNAC were both detected for those given test formulations. The main pharmacokinetic parameters were calculated according to the concentrations of abiraterone and SNAC in plasma using Phoenix WinNonlin® 7.0 software. The main pharmacokinetic data of abiraterone in plasma in cycles I-IV are shown in Table 5, and the main pharmacokinetic data of SNAC in plasma in cycles I and III are shown in Table 6.

[2] = In vivo pharmacokinetics study in healthy subjects, 75-450 mg single dose, fasting (Test Example 2); set-up: species or system human (healthy male subjects); conditions: for CLz/F of SNAC / t1/2z of SNAC / λz of SNAC / AUC—% Extrap of SNAC / MRT last / MRT inf / AUC(0-inf) / Cmax / AUC(0-t) / Vd/F / Tmax: single oral, fasting, healthy male subjects; for CLz/F of SNAC / t1/2z of SNAC / λz of SNAC / AUC—% Extrap of SNAC / MRT last / MRT inf / AUC(0-inf) / Cmax / AUC(0-t) / Vd/F: Mean ± SD; for MRT last / MRT inf / AUC(0-inf) / Cmax / AUC(0-t) / Vd/F / Tmax: human; for MRT last: read-out: MRT0-t of SNAC; for MRT inf: read-out: MRT0-∞ of SNAC; for AUC(0-inf): read-out: AUC0-∞ of SNAC; for AUC(0-t): read-out: AUC0-t of SNAC; for Vd/F: read-out: Vz/F of SNAC; for Tmax: median
Protocol: To study the pharmacokinetic characteristics of 75 mg, 150 mg, 300 mg and 450 mg doses of abiraterone acetate tablets in healthy subjects after a single oral administration under fasting state.
A single-center, open-label, sequential trial design was applied. A total of 16 healthy male subjects were planned to be enrolled in the study, who entered the four dose groups sequentially and the washout period of each dose group was seven days. Blood samples were collected at a series of time points, and safety test was performed. The blood concentration of abiraterone at different time points after dosing was determined by HPLC-MS/MS. Pharmacokinetic parameters were calculated using non-compartmental model and statistically analyzed.
The subjects were admitted to the ward before dinner on the day before the administration of each studied dose. […] They were fasting for at least 10 hours before dosing. According to the trial protocol, subjects were given a single oral administration of the investigational drug, abiraterone acetate tablets, 75 mg (split 150 mg tablet along the score line into half a tablet), 150 mg (150 mg×1 tablet), 300 mg (150 mg×2 tablets) and 450 mg (150 mg×3 tablets) with 240 mL water under fasting state in the morning on the day of trial of each dose group. Liquid was prohibited before administration and within 1 h after administration, and standard lunch and dinner (a standardized light diet) were taken about 4 and 10 h after administration.
Test Formulation (T): Abiraterone acetate tablets (Formulation 5), specification: 150 mg.
PKPS (PKPS, all enrolled in the group and receiving the study drug, at least one subject with analyzable PK parameters during the trial) was used for the statistical analysis of pharmacokinetic parameters.
The linearity between AUC and Cmax and the administration dose was analyzed by confidence interval method, and linear regression analysis was performed on the AUC and Cmax after natural logarithmic transformation respectively and the administration dose, to observe the slope of the linear regression equation and 90% confidence interval.

[3] = as above; set-up: species or system human (healthy male subjects); conditions: single oral, healthy male subjects
[4] = after Formulation 5, dose group A 75 mg (equal SNAC content), N = 16
[5] = after Formulation 5, dose group B 150 mg (equal SNAC content), N = 15
[6] = after Formulation 5, dose group C 300 mg (equal SNAC content), N = 15
[7] = after Formulation 5, dose group D 450 mg (equal SNAC content), N = 15
[8] = dose range 75-450 mg of test formulation, confidence interval method, N = 16
[9] = blood, after Formulation 5, dose group A 75 mg (equal SNAC content), N = 16
[10] = blood, after Formulation 5, dose group B 150 mg (equal SNAC content), N = 15
[11] = blood, after Formulation 5, dose group C 300 mg (equal SNAC content), N = 15
[12] = blood, after Formulation 5, dose group D 450 mg (equal SNAC content), N = 15
[13] = plasma, after Formulation 5, dose group A 75 mg (equal SNAC content), N = 16
[14] = plasma, after Formulation 5, dose group B 150 mg (equal SNAC content), N = 15
[15] = plasma, after Formulation 5, dose group C 300 mg (equal SNAC content), N = 15
[16] = plasma, after Formulation 5, dose group D 450 mg (equal SNAC content), N = 15

SMILES: O=C([O-])CCCCCCCNC(=O)c1ccccc1O.[Na+] [SNAC, sodium 8-(salicylamido)caprylate]
- AUC(0-inf) ([1]; fasting): 40.9 ± 10.6 µg·h/mL
- Cmax ([1]; fasting): 34.2 ± 18 µg/mL
- half-life ([1]; fasting): 3.16 ± 0.93 h
- Tmax ([1]; fasting): 0.72 ± 0.49 h
- AUC(0-inf) ([1]; high fat diet): 18.7 ± 5.62 µg·h/mL
- Cmax ([1]; high fat diet): 4.66 ± 2.4 µg/mL
- half-life ([1]; high fat diet): 2.71 ± 0.74 h
- Tmax ([1]; high fat diet): 2.88 ± 0.74 h
- AUC(0-t) ([1]; fasting): 40.3 ± 10.4 µg·h/mL
- AUC(0-t) ([1]; high fat diet): 18.4 ± 5.74 µg·h/mL
- CLz/F of SNAC [2, 4]: 2.66 ×10^2 L · h^−1 and 2.66 ± 0.64 ×10^2 L · h^−1
- t1/2z of SNAC [2, 4]: 3.53 h and 3.53 ± 2.54 h
- λz of SNAC [2, 4]: 0.28 ± 0.14 h⁻¹
- AUC—% Extrap of SNAC [2, 5]: 0.63 ± 0.62%
- CLz/F of SNAC [2, 5]: 2.36 ×10^2 L · h^−1 and 2.36 ± 0.62 ×10^2 L · h^−1
- t1/2z of SNAC [2, 5]: 2.94 h and 2.94 ± 1.39 h
- λz of SNAC [2, 5]: 0.29 ± 0.14 h⁻¹
- AUC—% Extrap of SNAC [2, 6]: 0.95 ± 0.91%
- CLz/F of SNAC [2, 6]: 2.22 ×10^2 L · h^−1 and 2.22 ± 0.51 ×10^2 L · h^−1
- t1/2z of SNAC [2, 6]: 5.35 h and 5.35 ± 3.92 h
- λz of SNAC [2, 6]: 0.19 ± 0.11 h⁻¹
- AUC—% Extrap of SNAC [2, 7]: 0.50 ± 0.44%
- CLz/F of SNAC [2, 7]: 2.22 ×10^2 L · h^−1 and 2.22 ± 0.51 ×10^2 L · h^−1
- t1/2z of SNAC [2, 7]: 4.88 h and 4.88 ± 2.37 h
- λz of SNAC [2, 7]: 0.18 ± 0.09 h⁻¹
- Slope of the linear regression equation (β), LnAUC0-t of SNAC vs dose [2, 8]: 1.10
- Slope of the linear regression equation (β), LnAUC0-∞ of SNAC vs dose [2, 8]: 1.10
- Slope of the linear regression equation (β), LnCmax of SNAC vs dose [2, 8]: 1.00
- MRT last [2, 9]: 1.32 ± 0.52 h
- MRT inf [2, 9]: 1.58 ± 0.76 h
- MRT last [2, 10]: 1.21 ± 0.48 h
- MRT inf [2, 10]: 1.32 ± 0.5 h
- MRT last [2, 11]: 1.28 ± 0.36 h
- MRT inf [2, 11]: 1.55 ± 0.54 h
- AUC(0-inf) [2, 12]: 2.13 ± 0.491 µg·h/mL
- MRT last [2, 12]: 1.4 ± 0.53 h
- MRT inf [2, 12]: 1.53 ± 0.51 h
- Cmax [2, 13]: 0.407 µg/mL
- AUC(0-t) [2, 13]: 0.291 µg·h/mL
- AUC(0-inf) [2, 13]: 0.295 ± 0.0614 µg·h/mL
- Vd/F [2, 13]: 1280 L
- Cmax [2, 14]: 0.977 µg/mL
- AUC(0-t) [2, 14]: 0.668 µg·h/mL
- AUC(0-inf) [2, 14]: 0.672 ± 0.152 µg·h/mL
- Vd/F [2, 14]: 1010 L
- Tmax [2, 14]: 0.5 h
- Cmax [2, 15]: 1.87 µg/mL
- AUC(0-inf) [2, 15]: 1.41 ± 0.285 µg·h/mL
- Vd/F [2, 15]: 1740 L
- Tmax [2, 15]: 0.5 h
- Cmax [2, 16]: 2.46 µg/mL
- AUC(0-t) [2, 16]: 2.12 µg·h/mL
- Vd/F [2, 16]: 1520 L
- Tmax [2, 16]: 0.5 h
- AUC—% Extrap of SNAC ([3]; after Formulation 5, dose group A 75 mg (equal SNAC content), N = 16, Mean ± SD): 1.23 ± 1.12%
- Tmax ([3]; human, plasma, after Formulation 5, dose group A 75 mg (equal SNAC content), N = 16, median): 0.38 h
- AUC(0-t) ([3]; human, plasma, after Formulation 5, dose group C 300 mg (equal SNAC content), N = 15, Mean ± SD, read-out: AUC0-t of SNAC): 1.4 µg·h/mL
